Target: T1, Prostaglandin G/H synthase 1 (Ovis aries, UniProt P05979)
T1 sequence (P05979 whole entry): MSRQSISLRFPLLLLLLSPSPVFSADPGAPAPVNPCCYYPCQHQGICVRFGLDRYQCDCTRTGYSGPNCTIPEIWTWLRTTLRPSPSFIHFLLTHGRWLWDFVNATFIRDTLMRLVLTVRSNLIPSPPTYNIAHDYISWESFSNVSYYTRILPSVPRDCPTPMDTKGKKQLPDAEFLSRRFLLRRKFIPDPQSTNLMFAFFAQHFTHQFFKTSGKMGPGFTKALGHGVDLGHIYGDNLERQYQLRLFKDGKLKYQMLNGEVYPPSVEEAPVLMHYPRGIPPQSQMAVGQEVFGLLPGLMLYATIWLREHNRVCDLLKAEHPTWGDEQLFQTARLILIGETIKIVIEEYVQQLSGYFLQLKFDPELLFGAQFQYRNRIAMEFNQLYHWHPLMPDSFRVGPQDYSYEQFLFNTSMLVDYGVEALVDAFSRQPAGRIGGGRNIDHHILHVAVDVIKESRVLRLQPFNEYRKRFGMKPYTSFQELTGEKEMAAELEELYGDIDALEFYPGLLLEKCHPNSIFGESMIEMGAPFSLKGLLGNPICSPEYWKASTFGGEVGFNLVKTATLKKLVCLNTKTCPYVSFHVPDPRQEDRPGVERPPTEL
Experiment: Inhibition of Ovis aries (sheep) cyclooxygenase-1 using arachidonic acid as substrate by chemiluminescent assay

Row | Structure (SMILES) | IC50 [µM]
1 | CCCCCN1C(=O)[C@@H](Oc2ccccc2)[C@H]1c1ccc(S(C)(=O)=O)cc1 (relative stereo) | 21.2
2 | CS(=O)(=O)c1ccc([C@@H]2[C@H](Oc3ccccc3)C(=O)N2c2ccccc2)cc1 (relative stereo) | 19.9
3 | CCCCN1C(=O)[C@@H](Oc2ccccc2)[C@H]1c1ccc(S(C)(=O)=O)cc1 (relative stereo) | 20.9
4 | CCCN1C(=O)[C@@H](Oc2ccccc2)[C@H]1c1ccc(S(C)(=O)=O)cc1 (relative stereo) | 21.7
5 | CC(C)N1C(=O)[C@@H](Oc2ccccc2)[C@H]1c1ccc(S(C)(=O)=O)cc1 (relative stereo) | 21.8

Next, values leading:

Row | IC50 [µM] | Structure (SMILES)
6 | 19.2 | COc1ccc(N2C(=O)[C@@H](Oc3ccccc3)[C@H]2c2ccc(S(C)(=O)=O)cc2)cc1 (relative stereo)
7 | 18.3 | CS(=O)(=O)c1ccc([C@@H]2[C@H](Oc3ccccc3)C(=O)N2c2ccc(Cl)cc2)cc1 (relative stereo)
8 | 19 | CS(=O)(=O)c1ccc([C@@H]2[C@H](Oc3ccccc3)C(=O)N2c2ccc(F)cc2)cc1 (relative stereo)
9 | 19.5 | CS(=O)(=O)c1ccc([C@@H]2[C@H](Oc3ccccc3)C(=O)N2C2CCCCC2)cc1 (relative stereo)
10 | 18.1 | Cc1ccc(N2C(=O)[C@@H](Oc3ccccc3)[C@H]2c2ccc(S(C)(=O)=O)cc2)cc1 (relative stereo)
